ChEMBL document CHEMBL4651402, “Screening of ~5500 FDA-approved drugs and clinical candidates for anti-SARS-CoV-2 activity” (2021)
Where a name gives a salt, the structure may show the parent alone.

System: SARS-CoV-2
Test: microbe, parasite or virus in culture
Settings: Severe acute respiratory syndrome coronavirus 2, Vero C1008, 48 h

Row | SMILES | IC50 [µM] | IC50 (read-out: pIC50 (converted)) [µM]
1 | COc1ccc(Cl)cc1NC(=O)Cc1ccc(S(=O)(=O)Nc2ncc(CC(C)C)cn2)cc1 | > 20 | > 20
2 | Cn1cc(-c2cccc3cc(C(=O)NC(=N)N)ccc23)cn1 | > 20 | > 20
3 | Oc1ccc([C@H]2COc3cc(O)ccc3C2)cc1 [AUS-131] | > 20 | > 20
4 | CC(C)(O)c1ccccc1CC[C@@H](SCC1(CC(=O)O)CC1)c1cccc(/C=C/c2ccc3ccc(Cl)cc3n2)c1 [MONTELUKAST] | > 20 | > 20
5 | CNC(=O)c1ccc(N2C(=S)N(c3cnc(C#N)c(C(F)(F)F)c3)C(=O)C23CCC3)cc1F [APALUTAMIDE] | > 20 | > 20
6 | CC(NCCC(c1ccccc1)c1ccccc1)c1ccccc1 (stereo not drawn) [FENDILINE] | > 20 | > 20
7 | CNC(=O)c1nnc(NC(=O)C2CC2)cc1Nc1cccc(-c2ncn(C)n2)c1OC [CRAVACITINIB] | > 20 | > 20
8 | O=C1O[C@H]([C@@H](O)CO)C(O)=C1O [ASCORBIC ACID] | > 20 | > 20
9 | Cc1ccc2c([nH]c(=O)c3c(=O)cc(C(=O)OCCC(C)C)oc32)c1C | > 20 | > 20
10 | CCCCNC(=O)NS(=O)(=O)c1ccc(C)cc1 [TOLBUTAMIDE] | > 20 | > 20
11 | COCC(=O)NC/C=C/c1ccc2ncnc(Nc3ccc(Oc4ccc(C)nc4)c(C)c3)c2c1 [CP-724714] | > 20 | > 20
12 | c1ccc(C2CN=C3NCCN32)cc1 (stereo not drawn) [IMAFEN] | > 20 | > 20
13 | CCCCCCCCCCCCCCC1(C(=O)O)CO1 (stereo not drawn) [PALMOXIRATE] | > 20 | > 20
14 | CC(C)C[C@H](NC(=O)OCC1c2ccccc2-c2ccccc21)C(=O)O | > 20 | > 20
15 | O=C(Nc1ccc(Cl)c(S(=O)(=O)N2CCNCC2)c1O)Nc1cccc(F)c1Cl [ELUBRIXIN] | > 20 | > 20
16 | O=C(/C=C/c1ccc(O)c(O)c1)O[C@@H]1C[C@](O)(C(=O)O)C[C@@H](O)[C@H]1O [CHLOROGENIC ACID] | > 20 | > 20
17 | CC(C)N(CCNC(=O)CN1CCCC1=O)C(C)C | > 20 | > 20
18 | CCOCn1c(Cc2ccccc2)c(C(C)C)c(=O)[nH]c1=O [EMIVIRINE] | > 20 | > 20
19 | OCC(O)C(O)C(O)C(O)C(O)CO (stereo not drawn) [PERSEITOL] | > 20 | > 20
20 | Cn1cc(C2=C(c3cn(C4CCN(Cc5ccccn5)CC4)c4ccccc34)C(=O)NC2=O)c2ccccc21 [ENZASTAURIN] | > 20 | > 20
21 | C[C@@H]1CN(Cc2ccc(F)cc2)CCN1C(=O)COc1ccc(Cl)cc1NC(N)=O [BX 471 FREE BASE] | > 20 | > 20
22 | CCc1ccc(C(=O)C(C)CN2CCCCC2)cc1 (stereo not drawn) [EPERISONE] | > 20 | > 20
23 | COc1ccc(-c2ccc(=N)n(CCCC(=O)O)n2)cc1 [GABAZINE] | > 20 | > 20
24 | COc1cc(OC)c2ccc(=O)oc2c1 [CITROPTEN] | > 20 | > 20
25 | Clc1ccc(CO[C@H](Cn2ccnc2)c2ccc(Cl)cc2Cl)c(Cl)c1 | > 20 | > 20

Row | SMILES | IC50 [µM] | IC50 (read-out: pIC50 (converted)) [µM]
26 | Cc1ccnc(N)c1 | > 20 | > 20
27 | CCC1(C)OC(=O)N(C)C1=O (stereo not drawn) [PARAMETHADIONE] | > 20 | > 20
28 | CC(=O)Oc1cc(OC(C)CCCc2ccccc2)cc2c1[C@@H]1C[C@H](O)CC[C@H]1[C@H](C)N2 (stereo partly drawn) [NANTRADOL HYDROCHLORIDE] | > 20 | > 20
29 | NC[C@H]1CC[C@H](C(=O)O)CC1 [TRANEXAMIC ACID] | > 20 | > 20
30 | Cc1cccc(Cl)c1NC(=O)/C=C1\SCC(=O)N1C [RALITOLINE] | > 20 | > 20
31 | CC1CC(OC(=O)c2ccccc2O)CC(C)(C)C1 (stereo not drawn) [HOMOSALATE] | > 20 | > 20
32 | CC(O)Cn1cnc2c1c(=O)n(C)c(=O)n2C (stereo not drawn) [PROXYPHYLLINE] | > 20 | > 20
33 | O[C@H]1[C@H](O)[C@@H](O)[C@H](O)[C@@H](O)[C@H]1O [INOSITOL] | > 20 | > 20
34 | O=C(OCc1ccccc1)c1ccc(O)cc1 | > 20 | > 20
35 | CC(=O)N[C@@H](Cc1ccc(O)cc1)C(=O)O [ACETYL TYROSINE] | > 20 | > 20
36 | Cc1oc(=O)oc1CN1CCN(c2cc3c(cc2F)c(=O)c(C(=O)O)c2n3C(C)S2)CC1 (stereo not drawn) [PRULIFLOXACIN] | > 20 | > 20
37 | CN(c1nc2ccccc2s1)C1CCN(C[C@@H](O)COc2ccc(F)c(F)c2)CC1 | > 20 | > 20
38 | OC(c1ccccc1)(c1ccccc1)[C@@H]1C[C@H]1c1ccncc1 | > 20 | > 20
39 | CCN1CCN(c2cc(-c3ccccc3)c3ccccc3n2)CC1 | > 20 | > 20
40 | C=C1C(=O)O[C@@H]2[C@H]3C(C)=CC[C@@]34O[C@@]4(C)CC[C@@H]12 [ARGLABIN] | > 20 | > 20
41 | CC(C)[C@@]1(NC(=O)[C@@H]2C[C@@H]3c4cccc5[nH]cc(c45)C[C@H]3N(C)C2)O[C@@]2(O)[C@@H]3CCCN3C(=O)[C@H](Cc3ccccc3)N2C1=O [DIHYDROERGOCRISTINE] | > 20 | > 20
42 | CCC1(c2ccccc2)CCC(=O)NC1=O (stereo not drawn) [GLUTETHIMIDE] | > 20 | > 20
43 | CN1CCN(c2cc3c(cc2F)c(=O)c(C(=O)O)cn3-c2ccc(F)cc2)CC1 [DIFLOXACIN] | > 20 | > 20
44 | CCOC(=O)CCC(=O)O[C@H]1[C@H](O[C@@H]2[C@@H](C)[C@H](O[C@H]3C[C@@](C)(OC)[C@@H](O)[C@H](C)O3)[C@@H](C)C(=O)O[C@H](CC)[C@@](C)(O)[C@H](O)[C@@H](C)C(=O)[C@H](C)C[C@@]2(C)O)O[C@H](C)C[C@@H]1N(C)C [ERYTHROMYCIN ETHYLSUCCINATE] | > 20 | > 20
45 | C[C@]12CC[C@@H]3c4ccc(O)cc4CC[C@H]3[C@@H]1C[C@@H](O)[C@@H]2O [ESTRIOL] | > 20 | > 20
46 | c1ccc2c(c1)CCCc1cc(NCCN3CCOCC3)nnc1-2 | > 20 | > 20
47 | CC(=O)Oc1cccc2c1C(=O)c1c(OC(C)=O)cc(C(=O)O)cc1C2=O [DIACEREIN] | > 20 | > 20
48 | CC[C@H](C)C[C@H](C)CCCCCCCCC(=O)N[C@H]1C[C@@H](O)[C@H](NCCN)NC(=O)[C@@H]2[C@@H](O)CCN2C(=O)[C@H]([C@H](O)CCN)NC(=O)C([C@H](O)[C@@H](O)c2ccc(O)cc2)NC(=O)[C@@H]2C[C@@H](O)CN2C(=O)C([C@@H](C)O)NC1=O (stereo partly drawn) | > 20 | > 20
49 | NC(=O)N1c2ccccc2C2OC2c2ccccc21 (stereo not drawn) [CARBAMAZEPINE EPOXIDE] | > 20 | > 20
50 | NC(=O)c1cn(Cc2c(F)cccc2F)nn1 [RUFINAMIDE] | > 20 | > 20

Row | SMILES | IC50 [µM] | IC50 (read-out: pIC50 (converted)) [µM]
51 | O=C1CN=C(c2ccccc2Cl)c2cc([N+](=O)[O-])ccc2N1 [CLONAZEPAM] | > 20 | > 20
52 | C=C[C@]1(C)C[C@@H](OC(=O)CSCCN(CC)CC)[C@]2(C)C(C)CC[C@]3(CCC(=O)[C@@H]32)[C@@H](C)[C@@H]1O (stereo partly drawn) | > 20 | > 20
53 | CSCC1CN(/N=C/c2ccc([N+](=O)[O-])o2)C(=O)O1 (stereo not drawn) | > 20 | > 20
54 | N=C(N)N [GUANIDINE] | > 20 | > 20
55 | COc1ccc(/C=C\c2cc(OC)c(OC)c(OC)c2)cc1O [COMBRETASTATIN A4] | > 20 | > 20
56 | C=CC(=O)Nc1ccc2ncnc(Nc3ccc(OCc4cccc(F)c4)c(Cl)c3)c2c1 [ALLITINIB] | > 20 | > 20
57 | O=C(O)c1ccccc1C(=O)Nc1ccc(S(=O)(=O)Nc2nccs2)cc1 [PHTHALYLSULFATHIAZOLE] | > 20 | > 20
58 | C[N+](C)(C)NCCC(=O)O | > 20 | > 20
59 | CNC(=C[N+](=O)[O-])NCCSCc1ccc(CN(C)C)o1 [RANITIDINE] | > 20 | > 20
60 | C=CC(=O)N1CCC(Oc2cc3c(Nc4ccc(Cl)c(Cl)c4F)ncnc3cc2OC)CC1 [POZIOTINIB] | > 20 | > 20
61 | NC(=O)Nc1ccc(S(=O)(=O)c2ccc(N)cc2)cc1 [AMIDAPSONE] | > 20 | > 20
62 | CN(C)CC(c1ccc(O)cc1)C1(O)CCCCC1 (stereo not drawn) [DESVENLAFAXINE] | > 20 | > 20
63 | CCCC(C)C1(CC)C(=O)NC(=O)NC1=O (stereo not drawn) [PENTOBARBITAL] | > 20 | > 20
64 | CCCCCC(=O)O[C@]1(C(C)=O)CCC2C3CCC4=CC(=O)CCC4(C)C3CCC21C (stereo partly drawn) | > 20 | > 20
65 | CC(C)=CCC/C(C)=C/CC/C(C)=C/CC/C(C)=C/CC1=C(C)C(=O)c2ccccc2C1=O [MENATETRENONE] | > 20 | > 20
66 | CC(C)C(=O)Nc1ccc([N+](=O)O)c(C(F)(F)F)c1 | > 20 | > 20
67 | CC(=O)N[C@@H](CC(N)=O)C(=O)O | > 20 | > 20
68 | N[C@H](CCC(=O)NCCS(=O)(=O)O)C(=O)O | > 20 | > 20
69 | Cc1cc(C)nc(NS(=O)(=O)c2ccc(N)cc2)n1 [SULFAMETHAZINE] | > 20 | > 20
70 | CCCCCCCCCCCC[N+](C)(C)CC(=O)O | > 20 | > 20
71 | COCc1c(-c2ccc(NC(=O)Nc3cc(C(F)(F)F)ccc3F)c(F)c2)c2c(N)ncnn2c1CN1CCOCC1 | > 20 | > 20
72 | COc1ccc(-c2ccc(=O)n(Cc3ccc(Cl)cc3F)c2)cc1 | > 20 | > 20
73 | CCCCCCCCCC(=O)O[C@H]1CC[C@H]2[C@@H]3CCC4=CC(=O)CC[C@@H]4[C@H]3CC[C@]12C [NANDROLONE DECANOATE] | > 20 | > 20
74 | CCC(=O)c1ccc(O)cc1 [PAROXYPROPIONE] | > 20 | > 20
